Values of other authors in patent US12434072B2, “Methods and systems for neural stimulation via visual, auditory and peripheral nerve stimulations” (Cognito Therapeutics, Inc., priority 2016, dated 2025).

Columns and labels:
[1] = 70 kg adult
[2] = human clinical trials; low (tracer) doses

Row | Structure (SMILES) | Estimated absorbed radiation dose, Adrenals [1] [rad/mCi] | Estimated absorbed radiation dose, Brain [1] [rad/mCi] | Estimated absorbed radiation dose, Breasts [1] [rad/mCi] | Estimated absorbed radiation dose, Gallbladder Wall [1] [rad/mCi] | Estimated absorbed radiation dose, Heart Wall [1] [rad/mCi] | Estimated absorbed radiation dose, Kidneys [1] [rad/mCi] | Estimated absorbed radiation dose, Liver [1] [rad/mCi] | Estimated absorbed radiation dose, Lower Large Intestine Wall [1] [rad/mCi] | Estimated absorbed radiation dose, Lungs [1] [rad/mCi] | Estimated absorbed radiation dose, Muscle [1] [rad/mCi] | Estimated absorbed radiation dose, Ovaries [1] [rad/mCi] | Estimated absorbed radiation dose, Pancreas [1] [rad/mCi] | Estimated absorbed radiation dose, Red marrow [1] [rad/mCi] | Estimated absorbed radiation dose, Skin [1] [rad/mCi] | Estimated absorbed radiation dose, Small Intestine [1] [rad/mCi] | Estimated absorbed radiation dose, Spleen [1] [rad/mCi] | Estimated absorbed radiation dose, Testes [1] [rad/mCi] | Estimated absorbed radiation dose, Thymus [1] [rad/mCi] | Estimated absorbed radiation dose, Thyroid [1] [rad/mCi] | Estimated absorbed radiation dose, Total Body [1] [rad/mCi] | further results
1 | CNc1ccc(/C=C/c2ccc(OCCOCCOCC[18F])nc2)cc1 [18F-AV-45] | 0.05 | 0.037 | 0.023 | 0.529 | 0.048 | 0.048 | 0.238 | 0.103 | 0.032 | 0.032 | 0.065 | 0.053 | 0.053 | 0.022 | 0.242 | 0.033 | 0.025 | 0.027 | 0.025 | 0.043 | Effective Dose ([1]; Effective Dose): 0.069 rad/mCi; Estimated absorbed radiation dose, Upper Large Intestine Wall [1]: 0.276 rad/mCi; Estimated absorbed radiation dose, Urinary bladder wall [1]: 0.1 rad/mCi; Estimated absorbed radiation dose, Uterus [1]: 0.058 rad/mCi; Most common adverse events [2]: headache, injection site reactions (injection site rash, extravasation, hemorrhage, irritation and puncture site hematoma), musculoskeletal pain, fatigue, and nausea
2 | OC[C@H]1O[C@@H](O)[C@H]([18F])[C@@H](O)[C@@H]1O [FDG] | 0.048 | 0.07 | 0.034 | 0.049 | 0.22 | 0.074 | 0.058 | 0.051 | 0.064 | 0.039 | 0.053 | 0.096 | 0.047 | 0.03 | 0.047 | 0.14 | 0.041 | 0.044 | 0.039 | 0.043 | Critical organ for radiation dose [1]: urinary bladder wall, followed by heart, spleen and pancreas; Estimated absorbed radiation dose, Upper Large Intestine Wall [1]: 0.046 rad/mCi; Estimated absorbed radiation dose, Urinary bladder wall [1]: 0.32 rad/mCi; Estimated absorbed radiation dose, Uterus [1]: 0.062 rad/mCi
